Earlier results in article PMC7275090, “Mode of action of teixobactins in cellular membranes” (Nature Communications, 2020).

Test system: bacteria
Conditions: cited from earlier work

Teixobactin
antibacterial activity: excellent activity
